The values that follow come from US12583868B2, “JAK inhibitors and methods for synthesizing and using thereof” (GALDERMA HOLDING SA, priority 2020, dated 2026).

The subject of data set [1] is 44 targets. The class given is binding. As to the method:
An in vitro pharmacology assay was conducted to assess the capability of the compounds to interact with different pharmacological targets when tested at 10 μM in different binding and enzyme/uptake assays. The included targets are indicative of potential effects in major organs and drug-drug interactions.
Compound binding was calculated as a % inhibition of the binding of a radioactively labelled ligand specific for each target. […] […].

Data set [2] concerns the target T1, CYP2D6 (Homo sapiens, UniProt P10635).
T1 construct: Human pooled liver microsomes of mixed gender (mainly Caucasian); from tissue; host or cells: pooled human liver microsomes
Description: CYP2D6 inhibition in human liver microsomes. The class given is in vitro ADME. The settings on record: dextromethorphan, CRL data. As to the method: After 5 min at 37° C. incubations were started with NADPH and prolonged for 10 min. The test compound was tested up to 30 μM keeping the final concentration of organic solvent was below 0.5%. The final concentration of microsomes was 0.1 mg/ml to ensure linearity during the time of the incubation. The reaction was quenched by adding 3 volume of acetonitrile. After centrifugation the supernatant was analyzed by HPLC/MS/MS for the formation of des-methyldextromethorphane selectively produced by CYP2D6 and 1′hydroxymidazolam or 6p-hydroxytestosterone, selectively produced by CYP3A. IC50 was calculated with Graphpad Prism v.7 comparing the amount of metabolite produced in presence of the test compound with that produced in absence of test item.
On the technique in general: Microsomes from liver hold many membrane-bound enzymes, among them those of drug oxidation.

Data set [3] is described as follows: Intrinsic clearance in hepatocytes, mouse. Type of data set: in vitro ADME, male balb-c mouse. Conditions: 2.5 μM. As to the method:
(§1) The intrinsic clearance was assessed in cryopreserved Hepatocytes obtained by Human livers donors of mix gender pooled together, male balb-c mouse, male Wistar Han rats and male Göttingen minipig, by looking at the parent compound disappearance. The incubations were performed using a final concentration of viable cells of 1 million/ml (viability above 70%) and test item of 2.5 μM. Incubations were followed up to 2 h. Aliquotes were withdrawn at different time points and reaction quenched with acetonitrile. After centrifugation the supernatant was analyzed by HPLC/MS to quantify the remaining amount of parent in comparison with time 0. The clearance was calculated by fitting the log of the percentage remaining with Graphpad Prism ver.7.

Data set [4] in a line: In vivo pharmacokinetic analysis in rat (iv). Set-up: species or system male Wistar Han rat. Conditions: iv 1 mg/kg. As to the method: One male Wistar Han rat. Compound was administered intravenously to fed animal at a target dose of 1 mg/kg, dose volume: 2 mL/kg, in DMSO/hydroxypropyl-beta-cyclodextrin 20% in phosphate buffer 60 mM pH 7 (5:95). Blood samples were collected at various time points. Blood samples were then assayed using a method based upon protein precipitation with acetonitrile followed by LC/MS/MS analysis. Non-compartmental methods were used for pharmacokinetic analysis of blood concentration versus time data

For data set [5], the system named is IL6. In words: hWB assay, IL6. Type of data set: cell-based, h.
Data set [6] in a line: In vivo pharmacokinetic analysis in minipig (iv). Set-up: species or system male Göttingen minipigs. The settings on record: iv 1 mg/kg. As to the method:
Three male Göttingen minipigs. Compound was administered intravenously to fed animals at a target dose of 1 mg/kg, dose volume 1 mL/kg, in DMSO: hydroxypropyl-p-cyclodextrin 20% in phosphate buffer 60 mM pH 7 (5:95). Blood samples were collected at various time points. Blood samples were then assayed using a method based upon protein precipitation with acetonitrile followed by LC/MS/MS analysis. Non-compartmental methods were used for pharmacokinetic analysis of blood concentration versus time data.

Data set [7] in a line: Protein binding analysis (RED), minipig plasma. Conditions: male, Göttingen, pH 7.4, read-out: minipig FU. The class given is in vitro ADME. As to the method:
(§2) The protein binding was assessed in plasma of Human, male balb-c mice, male Wistar Han rat, male Göttingen minipig by rapid equilibrium dialysis (RED) devices. After the plasma and buffer phosphate 50 mM pH7.4 were equilibrated at 37° C., the compound was added to plasma to reach a final concentration of 5 μM. An aliquot of plasma was withdrawn immediately. Equilibration under mild agitation was continued for 4 h. The plasma and buffer were sampled and samples were quenched with 4 volumes of acetonitrile and centrifuged. Supernatant was quantified in HPLC/MS/MS to calculate the recovery and the percentage of compound dissolved in the buffer (unbound) and bound to plasma proteins.

The nature of data set [8]: Intrinsic clearance in hepatocytes, minipig. The class given is in vitro ADME, male Göttingen minipig. Conditions: 2.5 μM. As to the method:
as §1

A short description of data set [9]: SF logD. Type of data set: physicochemical.
Data set [10] can be described thus: Protein binding analysis (RED), mouse plasma. Type of data set: in vitro ADME, male balb-c mice. The settings on record: 5 μM. As to the method: as §2
Data set [11] is described as follows: Kinetic aq sol. Type of data set: physicochemical.
Data set [12] can be described thus: Intrinsic clearance in hepatocytes, human. Type of data set: in vitro ADME. Conditions: 2.5 μM. As to the method:
as §1

Data set [13] is described as follows: Thermodynamic sol PG_H2O pH 6 2/8. The settings on record: amorphous material. Type of data set: physicochemical.
A short description of data set [14]: Protein binding analysis (RED), human plasma. The settings on record: 5 μM. The class given is in vitro ADME. As to the method: as §2
A short description of data set [15]: Chrom logD pH 7.4. The class given is physicochemical.
Data set [16] deals with IL-6 induced pSTAT3 in TF-1 cells. In words: In vitro cellular pSTAT3 assay, IL-6 stimulated TF-1 cells. The class given is cell-based. Conditions: Homo sapiens. As to the method: . The flasks were incubated overnight at 37° C., 5% CO2 then seeded in 96 well plates (TPP) at 150000 cells/well in 25 μL. Cells were treated with 5 IL/well of serially diluted compounds in DMSO (final DMSO concentration of 0.1%) and incubated for 30 min at 37° C. IL-6 (6 IL/well, 100 ng/ml as a final concentration in Opti-MEM, Thermofisher, PHC0066) was added to the cell plates and followed by a 30-min incubation at 37° C. Next, cells were lysed by adding 12 μl/well of 4× supplemented lysis buffer, incubated at 4° C. for 30 min under agitation. The samples were processed for the pSTAT3 detection as described by the manufacturer (MSD) with 25 μl of non-diluted cell lysates tested. Compounds were tested in simplicates over 10 three-step dilutions in order to determine their IC50 values.

The nature of data set [17]: Systemic level in PD/IL6 mouse topical dose response. The settings on record: topical 10 mM. The class given is in vivo, BALB/c ByJ Rj mice. As to the method:
Skin samples were harvested 15 min.

Data set [18] in a line: Human skin ex vivo: flux through skin and dermis concentration (Franz cells). The class given is in vitro ADME. The settings on record: PG/H2O cream 1 mg/mL, human skin.
Data set [19] can be described thus: Protein binding analysis (RED), rat plasma. The class given is in vitro ADME, male Wistar Han rat. Conditions: 5 μM. As to the method: as §2
Data set [20] is described as follows: Intrinsic clearance in hepatocytes, rat. Type of data set: in vitro ADME, male Wistar Han rats. Conditions: 2.5 μM. As to the method: as §1

Where “and” joins values, the source holds several entries; their conditions need not be identical. Equal entries are not always repeated. Where two headings read alike, the source gives them in different places.

For orientation: IC50 means the midpoint of a concentration-inhibition curve. As a reminder, the logD is lipophilicity at a set pH, counting ionised and neutral species. Low values mean lower lipophilicity, high ones higher lipophilicity. As usually defined, the chromatographic logD is a lipophilicity value derived from retention on a column. Higher therefore signals higher lipophilicity.

T1 sequence (P10635 whole entry): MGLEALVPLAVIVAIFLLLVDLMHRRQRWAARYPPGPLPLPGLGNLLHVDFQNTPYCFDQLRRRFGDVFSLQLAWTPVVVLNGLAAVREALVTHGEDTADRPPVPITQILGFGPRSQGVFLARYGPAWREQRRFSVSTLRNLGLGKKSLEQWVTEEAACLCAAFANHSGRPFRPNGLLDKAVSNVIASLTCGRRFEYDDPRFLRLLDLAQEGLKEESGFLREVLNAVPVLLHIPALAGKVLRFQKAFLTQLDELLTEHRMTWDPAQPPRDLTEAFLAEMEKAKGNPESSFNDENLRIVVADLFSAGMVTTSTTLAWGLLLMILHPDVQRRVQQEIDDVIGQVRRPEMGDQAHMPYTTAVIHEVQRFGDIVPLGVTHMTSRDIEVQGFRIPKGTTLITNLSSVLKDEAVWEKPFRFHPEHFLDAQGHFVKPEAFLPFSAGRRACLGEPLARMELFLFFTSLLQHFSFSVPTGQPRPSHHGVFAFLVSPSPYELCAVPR

`N#CC[C@H](C1CCCC1)n1cc(-c2ncnc3[nH]ccc23)cn1` [Ruxolitinib, reference compound]: the “Safety panel (Cerep): 44 targets % inh @10 microM Nb of targets > 50% inh” value in [1] is given as 0/44. Also, the IC50 was over 30000 nM in [2]; 6900 nM in data set [5]; 8 nM in [16] (TF-1, read-out: Cellular Assay: IC50 IL6); 200 nM in data set [16] (TF-1, read-out: Free IC50). Also, in data set [3], the “Intr. Clear. mheps” value was determined as 150 microL/min/10 6 cells. In addition, the “iv PK rat: ER” value in data set [4] is given as 51%. Further, the clearance in data set [4] (male, Wistar Han, whole blood, read-out: iv PK rat: Cl) is 40 mL/min/kg; in data set [6] (male, Göttingen, whole blood, read-out: iv PK minipig: Cl), 19 mL/min/kg. For the same compound, in data set [6], the “iv PK minipig: ER” value is 68%. Moreover, the fraction unbound at 4 h, 5 μM in data set [7] was determined as 0.25. For the same compound, the “Intr. Clear. minipig heps” value in data set [8] came to 141 microL/min/10 6 cells. In data set [9], the logD is 2.3. In data set [10], this compound showed a mFU of 7.7%. Moreover, the Kinetic aq sol in [11] is 232/ND (no cristalline microM. Further, in [12], the “Intr. Clear. h heps” value amounted to 4.4 microL/min/10 6 cells. Further, in data set [13], the “Thermodynamic sol PG_H2O pH 6 2/8” value is 1 mM and 0.3 mg/mL. The hFU in [14] was determined as 4%. Also, the chromatographic logD in data set [15] amounted to 1.5. In addition, the “PD/IL6 mouse top DR 0.01-10 mM (PG/Acetone/Transcutol): Systemic level @10 mM - 2 hrs” value in data set [17] amounted to 81 nM. Moreover, the “measured flux 6-24 hr” value in data set [18] came out at 5.3 ng/cm^2/hr. Further, the rFU in [19] amounted to 13%. Further, the “Intr. Clear. rheps” value in [20] is recorded as 300 microL/min/10 6 cells.
